molecular target: T1, Serine/threonine-protein kinase VRK3 (Homo sapiens) (UniProt Q8IV63)
T1 sequence (whole entry): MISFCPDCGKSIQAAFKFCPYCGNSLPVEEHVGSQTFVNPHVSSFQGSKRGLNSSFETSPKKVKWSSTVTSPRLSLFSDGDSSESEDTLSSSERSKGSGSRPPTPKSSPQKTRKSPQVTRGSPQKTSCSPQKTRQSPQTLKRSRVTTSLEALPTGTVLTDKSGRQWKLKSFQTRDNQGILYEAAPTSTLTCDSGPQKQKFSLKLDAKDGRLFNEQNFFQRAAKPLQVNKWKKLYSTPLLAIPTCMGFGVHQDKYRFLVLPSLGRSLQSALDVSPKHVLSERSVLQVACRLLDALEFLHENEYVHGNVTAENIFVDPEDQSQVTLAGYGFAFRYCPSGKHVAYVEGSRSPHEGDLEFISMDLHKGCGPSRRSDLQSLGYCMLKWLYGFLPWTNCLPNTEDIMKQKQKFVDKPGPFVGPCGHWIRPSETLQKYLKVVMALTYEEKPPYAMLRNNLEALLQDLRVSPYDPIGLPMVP

SMILES	ΔTm [°C]
O=c1cc(N2CCOCC2)oc2c1ccc1ccccc12	1
O=C1NC(=O)C(c2cn(CCCn3ccnc3)c3ccccc23)=C1Nc1ccccc1	1.6
N#CCCc1ccc2c(c1)-c1[nH]c3ccc([N+](=O)[O-])cc3c1CC(=O)N2 [ALSTERPAULLONE 2]	0.6
Nc1cccc(-c2cc3c(Oc4cccc(O)c4)ncnc3[nH]2)c1	2.2

molecular target: T2, Serine/threonine-protein kinase 17A (Homo sapiens) (UniProt Q9UEE5)
T2 sequence (whole entry): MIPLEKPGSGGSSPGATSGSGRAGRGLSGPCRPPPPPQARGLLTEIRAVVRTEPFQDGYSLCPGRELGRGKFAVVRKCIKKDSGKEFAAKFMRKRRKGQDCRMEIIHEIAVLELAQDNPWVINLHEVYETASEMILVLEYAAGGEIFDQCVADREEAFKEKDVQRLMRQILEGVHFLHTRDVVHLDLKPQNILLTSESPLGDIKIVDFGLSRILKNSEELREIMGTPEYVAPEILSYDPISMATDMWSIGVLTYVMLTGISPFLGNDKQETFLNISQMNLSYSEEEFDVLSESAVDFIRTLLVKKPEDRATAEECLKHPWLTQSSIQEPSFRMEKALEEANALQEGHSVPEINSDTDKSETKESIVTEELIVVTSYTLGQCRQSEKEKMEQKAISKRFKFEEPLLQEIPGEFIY

SMILES	ΔTm [°C]
O=c1cc(N2CCOCC2)oc2c1ccc1ccccc12	0.6
O=C1NC(=O)C(c2cn(CCCn3ccnc3)c3ccccc23)=C1Nc1ccccc1	0.5
N#CCCc1ccc2c(c1)-c1[nH]c3ccc([N+](=O)[O-])cc3c1CC(=O)N2 [ALSTERPAULLONE 2]	9.6
Nc1cccc(-c2cc3c(Oc4cccc(O)c4)ncnc3[nH]2)c1	0.9

molecular target: Serine/threonine-protein kinase 26 (Homo sapiens) (UniProt Q9P289)

SMILES	ΔTm [°C]
O=c1cc(N2CCOCC2)oc2c1ccc1ccccc12	0.5
O=C1NC(=O)C(c2cn(CCCn3ccnc3)c3ccccc23)=C1Nc1ccccc1	2
N#CCCc1ccc2c(c1)-c1[nH]c3ccc([N+](=O)[O-])cc3c1CC(=O)N2 [ALSTERPAULLONE 2]	3.5
Nc1cccc(-c2cc3c(Oc4cccc(O)c4)ncnc3[nH]2)c1	0.8

molecular target: Serine/threonine-protein kinase PAK 6 (Homo sapiens) (UniProt Q9NQU5)
Sequence (Q9NQU5 whole entry, looked up): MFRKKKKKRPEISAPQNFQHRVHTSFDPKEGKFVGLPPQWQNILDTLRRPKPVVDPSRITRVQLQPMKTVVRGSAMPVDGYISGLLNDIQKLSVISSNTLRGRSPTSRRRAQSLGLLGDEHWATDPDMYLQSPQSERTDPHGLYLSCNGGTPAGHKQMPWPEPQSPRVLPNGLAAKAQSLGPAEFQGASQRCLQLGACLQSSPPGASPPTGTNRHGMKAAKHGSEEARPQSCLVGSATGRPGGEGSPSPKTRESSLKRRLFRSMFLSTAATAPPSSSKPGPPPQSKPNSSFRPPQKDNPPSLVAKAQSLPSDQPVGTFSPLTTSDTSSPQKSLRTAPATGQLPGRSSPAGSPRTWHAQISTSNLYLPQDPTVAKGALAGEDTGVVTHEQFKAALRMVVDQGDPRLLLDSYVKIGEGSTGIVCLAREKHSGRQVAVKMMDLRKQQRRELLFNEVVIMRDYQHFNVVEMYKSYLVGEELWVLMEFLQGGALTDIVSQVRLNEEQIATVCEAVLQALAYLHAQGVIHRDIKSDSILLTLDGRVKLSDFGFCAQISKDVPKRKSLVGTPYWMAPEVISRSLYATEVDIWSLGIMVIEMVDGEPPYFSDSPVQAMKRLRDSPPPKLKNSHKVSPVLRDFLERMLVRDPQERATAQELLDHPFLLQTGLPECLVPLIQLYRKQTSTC

SMILES	ΔTm [°C]
O=c1cc(N2CCOCC2)oc2c1ccc1ccccc12	-0.3
O=C1NC(=O)C(c2cn(CCCn3ccnc3)c3ccccc23)=C1Nc1ccccc1	-0.4
N#CCCc1ccc2c(c1)-c1[nH]c3ccc([N+](=O)[O-])cc3c1CC(=O)N2 [ALSTERPAULLONE 2]	2.3
Nc1cccc(-c2cc3c(Oc4cccc(O)c4)ncnc3[nH]2)c1	1.3

molecular target: cAMP-dependent protein kinase catalytic subunit alpha (Homo sapiens) (UniProt P17612)

SMILES	ΔTm [°C]
O=c1cc(N2CCOCC2)oc2c1ccc1ccccc12	0.2
O=C1NC(=O)C(c2cn(CCCn3ccnc3)c3ccccc23)=C1Nc1ccccc1	0.3
N#CCCc1ccc2c(c1)-c1[nH]c3ccc([N+](=O)[O-])cc3c1CC(=O)N2 [ALSTERPAULLONE 2]	1.1
Nc1cccc(-c2cc3c(Oc4cccc(O)c4)ncnc3[nH]2)c1	-0.6

molecular target: 5'-AMP-activated protein kinase catalytic subunit alpha-2 (Homo sapiens) (UniProt P54646)
Sequence (P54646 whole entry, looked up): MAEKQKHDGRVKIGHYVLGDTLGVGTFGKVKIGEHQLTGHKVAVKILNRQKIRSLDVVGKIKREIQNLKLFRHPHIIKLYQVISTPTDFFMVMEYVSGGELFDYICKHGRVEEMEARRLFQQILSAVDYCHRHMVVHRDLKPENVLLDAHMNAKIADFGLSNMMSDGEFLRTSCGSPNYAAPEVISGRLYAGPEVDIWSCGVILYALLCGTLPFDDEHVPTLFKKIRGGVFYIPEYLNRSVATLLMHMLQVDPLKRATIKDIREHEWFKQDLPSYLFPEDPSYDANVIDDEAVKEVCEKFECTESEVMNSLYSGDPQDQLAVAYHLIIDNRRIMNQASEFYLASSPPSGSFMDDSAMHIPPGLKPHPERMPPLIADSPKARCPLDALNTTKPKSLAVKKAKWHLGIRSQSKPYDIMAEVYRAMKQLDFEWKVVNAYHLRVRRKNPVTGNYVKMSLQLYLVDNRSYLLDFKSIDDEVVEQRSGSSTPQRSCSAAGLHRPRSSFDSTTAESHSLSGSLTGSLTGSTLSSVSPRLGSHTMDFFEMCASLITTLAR

SMILES	ΔTm [°C]
O=c1cc(N2CCOCC2)oc2c1ccc1ccccc12	0.4
O=C1NC(=O)C(c2cn(CCCn3ccnc3)c3ccccc23)=C1Nc1ccccc1	0.4
N#CCCc1ccc2c(c1)-c1[nH]c3ccc([N+](=O)[O-])cc3c1CC(=O)N2 [ALSTERPAULLONE 2]	1
Nc1cccc(-c2cc3c(Oc4cccc(O)c4)ncnc3[nH]2)c1	0.6

molecular target: T3, Mitogen-activated protein kinase kinase kinase 5 (Homo sapiens) (UniProt Q99683)
T3 sequence (whole entry): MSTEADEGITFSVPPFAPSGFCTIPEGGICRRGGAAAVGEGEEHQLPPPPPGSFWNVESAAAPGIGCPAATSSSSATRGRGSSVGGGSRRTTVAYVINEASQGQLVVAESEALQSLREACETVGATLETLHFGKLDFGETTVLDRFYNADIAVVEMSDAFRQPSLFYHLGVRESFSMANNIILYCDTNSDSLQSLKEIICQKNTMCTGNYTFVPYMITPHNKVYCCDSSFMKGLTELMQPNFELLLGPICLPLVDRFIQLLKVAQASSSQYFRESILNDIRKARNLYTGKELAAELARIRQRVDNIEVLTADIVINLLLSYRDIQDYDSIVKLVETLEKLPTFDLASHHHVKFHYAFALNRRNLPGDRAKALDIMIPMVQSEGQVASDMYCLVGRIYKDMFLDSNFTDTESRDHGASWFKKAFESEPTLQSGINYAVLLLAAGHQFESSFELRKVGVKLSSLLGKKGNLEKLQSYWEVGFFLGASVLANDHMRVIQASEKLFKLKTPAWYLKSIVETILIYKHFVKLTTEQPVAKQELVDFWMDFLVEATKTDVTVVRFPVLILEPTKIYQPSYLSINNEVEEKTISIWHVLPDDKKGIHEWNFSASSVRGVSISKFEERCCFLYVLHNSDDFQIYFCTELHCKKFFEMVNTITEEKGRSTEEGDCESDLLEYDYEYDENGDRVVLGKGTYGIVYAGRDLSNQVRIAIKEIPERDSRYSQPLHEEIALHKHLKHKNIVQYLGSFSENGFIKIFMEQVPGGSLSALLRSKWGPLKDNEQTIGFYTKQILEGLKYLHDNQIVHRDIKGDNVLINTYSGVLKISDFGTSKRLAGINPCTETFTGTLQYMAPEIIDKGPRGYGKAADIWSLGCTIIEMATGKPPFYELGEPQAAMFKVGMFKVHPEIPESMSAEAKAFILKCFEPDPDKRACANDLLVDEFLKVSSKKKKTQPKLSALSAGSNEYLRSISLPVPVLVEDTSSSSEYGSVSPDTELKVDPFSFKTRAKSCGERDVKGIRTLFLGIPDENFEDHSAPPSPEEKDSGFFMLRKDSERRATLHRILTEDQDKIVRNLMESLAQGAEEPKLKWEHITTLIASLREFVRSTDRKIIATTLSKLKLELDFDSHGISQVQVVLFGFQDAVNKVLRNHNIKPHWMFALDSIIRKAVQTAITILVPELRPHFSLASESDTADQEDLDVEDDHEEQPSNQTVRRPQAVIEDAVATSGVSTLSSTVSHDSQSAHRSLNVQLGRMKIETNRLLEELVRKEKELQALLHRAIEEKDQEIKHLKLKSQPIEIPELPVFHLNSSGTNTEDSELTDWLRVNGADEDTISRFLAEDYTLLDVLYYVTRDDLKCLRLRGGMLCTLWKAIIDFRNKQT

SMILES	ΔTm [°C]
O=c1cc(N2CCOCC2)oc2c1ccc1ccccc12	1.2
O=C1NC(=O)C(c2cn(CCCn3ccnc3)c3ccccc23)=C1Nc1ccccc1	0.6
N#CCCc1ccc2c(c1)-c1[nH]c3ccc([N+](=O)[O-])cc3c1CC(=O)N2 [ALSTERPAULLONE 2]	1.8
Nc1cccc(-c2cc3c(Oc4cccc(O)c4)ncnc3[nH]2)c1	0.5

molecular target: Serine/threonine-protein kinase Nek6 (Homo sapiens) (UniProt Q9HC98)
Sequence (Q9HC98 whole entry): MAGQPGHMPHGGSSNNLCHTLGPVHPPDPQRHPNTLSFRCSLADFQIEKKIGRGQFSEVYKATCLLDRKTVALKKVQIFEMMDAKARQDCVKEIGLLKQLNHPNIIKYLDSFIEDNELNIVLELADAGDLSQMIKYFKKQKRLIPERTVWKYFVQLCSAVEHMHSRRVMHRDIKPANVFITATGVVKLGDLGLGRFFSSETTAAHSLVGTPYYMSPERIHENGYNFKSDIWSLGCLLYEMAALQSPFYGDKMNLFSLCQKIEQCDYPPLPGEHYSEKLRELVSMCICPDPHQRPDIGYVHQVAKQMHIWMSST

SMILES	ΔTm [°C]
O=c1cc(N2CCOCC2)oc2c1ccc1ccccc12	-0.2
O=C1NC(=O)C(c2cn(CCCn3ccnc3)c3ccccc23)=C1Nc1ccccc1	-0.1
N#CCCc1ccc2c(c1)-c1[nH]c3ccc([N+](=O)[O-])cc3c1CC(=O)N2 [ALSTERPAULLONE 2]	0.8
Nc1cccc(-c2cc3c(Oc4cccc(O)c4)ncnc3[nH]2)c1	-1.3

molecular target: Serine/threonine-protein kinase pim-2 (Homo sapiens, UniProt Q9P1W9)
Sequence (Q9P1W9 whole entry, looked up): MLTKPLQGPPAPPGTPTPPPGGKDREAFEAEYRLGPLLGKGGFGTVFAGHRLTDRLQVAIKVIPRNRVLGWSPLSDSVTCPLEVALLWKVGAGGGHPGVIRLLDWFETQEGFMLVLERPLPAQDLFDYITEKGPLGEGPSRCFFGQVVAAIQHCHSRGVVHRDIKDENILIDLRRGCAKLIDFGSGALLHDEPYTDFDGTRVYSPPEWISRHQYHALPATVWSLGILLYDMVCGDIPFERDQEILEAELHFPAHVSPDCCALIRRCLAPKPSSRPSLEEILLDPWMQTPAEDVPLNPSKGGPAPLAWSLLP

SMILES	ΔTm [°C]
O=c1cc(N2CCOCC2)oc2c1ccc1ccccc12	1
O=C1NC(=O)C(c2cn(CCCn3ccnc3)c3ccccc23)=C1Nc1ccccc1	1.5
N#CCCc1ccc2c(c1)-c1[nH]c3ccc([N+](=O)[O-])cc3c1CC(=O)N2 [ALSTERPAULLONE 2]	1.4
Nc1cccc(-c2cc3c(Oc4cccc(O)c4)ncnc3[nH]2)c1	0.8

molecular target: Casein kinase I isoform gamma-3 (Homo sapiens) (UniProt Q9Y6M4)
Sequence (Q9Y6M4 whole entry, looked up, canonical isoform): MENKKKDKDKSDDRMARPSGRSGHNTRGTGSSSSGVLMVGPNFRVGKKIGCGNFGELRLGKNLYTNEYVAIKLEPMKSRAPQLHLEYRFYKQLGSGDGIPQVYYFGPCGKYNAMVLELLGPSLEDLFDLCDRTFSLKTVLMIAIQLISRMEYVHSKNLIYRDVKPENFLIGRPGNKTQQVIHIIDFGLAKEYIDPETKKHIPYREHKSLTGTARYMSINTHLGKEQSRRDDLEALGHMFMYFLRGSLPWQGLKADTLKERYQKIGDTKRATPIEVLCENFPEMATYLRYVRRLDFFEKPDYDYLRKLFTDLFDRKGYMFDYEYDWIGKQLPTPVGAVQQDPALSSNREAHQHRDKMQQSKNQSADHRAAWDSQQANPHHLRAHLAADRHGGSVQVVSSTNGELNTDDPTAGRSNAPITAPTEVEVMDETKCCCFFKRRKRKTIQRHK

SMILES	ΔTm [°C]
O=c1cc(N2CCOCC2)oc2c1ccc1ccccc12	0
O=C1NC(=O)C(c2cn(CCCn3ccnc3)c3ccccc23)=C1Nc1ccccc1	0.5
N#CCCc1ccc2c(c1)-c1[nH]c3ccc([N+](=O)[O-])cc3c1CC(=O)N2 [ALSTERPAULLONE 2]	1.6
Nc1cccc(-c2cc3c(Oc4cccc(O)c4)ncnc3[nH]2)c1	1

molecular target: Serine/threonine-protein kinase 10 (Homo sapiens) (UniProt O94804)
Sequence (O94804 whole entry, looked up): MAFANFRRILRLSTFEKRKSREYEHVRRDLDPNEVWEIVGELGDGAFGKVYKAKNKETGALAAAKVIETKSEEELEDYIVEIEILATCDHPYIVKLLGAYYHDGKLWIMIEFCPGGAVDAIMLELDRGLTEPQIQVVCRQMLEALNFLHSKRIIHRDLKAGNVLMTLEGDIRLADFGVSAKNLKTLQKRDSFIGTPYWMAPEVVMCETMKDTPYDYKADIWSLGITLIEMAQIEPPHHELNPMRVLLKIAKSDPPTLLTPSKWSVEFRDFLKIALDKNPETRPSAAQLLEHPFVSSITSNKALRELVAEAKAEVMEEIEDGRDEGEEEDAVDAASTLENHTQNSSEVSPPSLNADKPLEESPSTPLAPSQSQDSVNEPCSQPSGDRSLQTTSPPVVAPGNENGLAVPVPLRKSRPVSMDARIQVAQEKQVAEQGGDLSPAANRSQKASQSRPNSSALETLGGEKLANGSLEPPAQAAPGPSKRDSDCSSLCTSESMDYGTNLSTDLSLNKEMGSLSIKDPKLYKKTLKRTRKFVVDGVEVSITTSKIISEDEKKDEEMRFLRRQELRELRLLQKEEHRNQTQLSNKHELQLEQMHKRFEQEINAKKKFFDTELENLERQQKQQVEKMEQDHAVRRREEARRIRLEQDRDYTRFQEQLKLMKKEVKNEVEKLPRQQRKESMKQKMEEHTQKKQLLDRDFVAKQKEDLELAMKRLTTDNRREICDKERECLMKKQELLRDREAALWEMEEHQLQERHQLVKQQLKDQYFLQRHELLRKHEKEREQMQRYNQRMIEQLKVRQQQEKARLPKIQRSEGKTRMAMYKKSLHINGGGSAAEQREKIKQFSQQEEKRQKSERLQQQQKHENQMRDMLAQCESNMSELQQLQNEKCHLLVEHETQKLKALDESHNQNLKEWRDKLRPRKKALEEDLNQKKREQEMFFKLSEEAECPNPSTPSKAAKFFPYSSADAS

SMILES	ΔTm [°C]
O=c1cc(N2CCOCC2)oc2c1ccc1ccccc12	0.4
O=C1NC(=O)C(c2cn(CCCn3ccnc3)c3ccccc23)=C1Nc1ccccc1	2
N#CCCc1ccc2c(c1)-c1[nH]c3ccc([N+](=O)[O-])cc3c1CC(=O)N2 [ALSTERPAULLONE 2]	4
Nc1cccc(-c2cc3c(Oc4cccc(O)c4)ncnc3[nH]2)c1	5.9

molecular target: Cyclin-dependent kinase 16 (Homo sapiens) (UniProt Q00536)
Sequence (Q00536 whole entry): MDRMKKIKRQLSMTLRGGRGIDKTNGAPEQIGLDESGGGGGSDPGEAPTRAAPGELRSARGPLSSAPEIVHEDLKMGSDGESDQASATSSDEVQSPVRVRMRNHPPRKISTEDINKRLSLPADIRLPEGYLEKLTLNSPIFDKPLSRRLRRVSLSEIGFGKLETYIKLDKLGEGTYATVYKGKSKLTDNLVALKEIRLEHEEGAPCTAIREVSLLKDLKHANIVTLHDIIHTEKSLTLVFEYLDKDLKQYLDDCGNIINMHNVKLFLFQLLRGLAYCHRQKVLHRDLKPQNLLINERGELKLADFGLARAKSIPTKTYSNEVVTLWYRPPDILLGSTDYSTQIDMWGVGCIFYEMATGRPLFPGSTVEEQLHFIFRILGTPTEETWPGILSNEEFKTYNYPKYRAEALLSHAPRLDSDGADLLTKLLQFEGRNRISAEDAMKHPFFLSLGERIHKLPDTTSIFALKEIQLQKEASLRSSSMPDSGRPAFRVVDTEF

SMILES	ΔTm [°C]
O=c1cc(N2CCOCC2)oc2c1ccc1ccccc12	-0.4
O=C1NC(=O)C(c2cn(CCCn3ccnc3)c3ccccc23)=C1Nc1ccccc1	0.6
N#CCCc1ccc2c(c1)-c1[nH]c3ccc([N+](=O)[O-])cc3c1CC(=O)N2 [ALSTERPAULLONE 2]	8.7
Nc1cccc(-c2cc3c(Oc4cccc(O)c4)ncnc3[nH]2)c1	0.1

molecular target: Tyrosine-protein kinase JAK1 (Homo sapiens) (UniProt P23458)

SMILES	ΔTm [°C]
O=c1cc(N2CCOCC2)oc2c1ccc1ccccc12	0.8
O=C1NC(=O)C(c2cn(CCCn3ccnc3)c3ccccc23)=C1Nc1ccccc1	1.1
N#CCCc1ccc2c(c1)-c1[nH]c3ccc([N+](=O)[O-])cc3c1CC(=O)N2 [ALSTERPAULLONE 2]	1.4
Nc1cccc(-c2cc3c(Oc4cccc(O)c4)ncnc3[nH]2)c1	4.3

molecular target: Calcium/calmodulin-dependent protein kinase kinase 2 (Homo sapiens, UniProt Q96RR4)
Sequence (Q96RR4 2-588 limits assumed): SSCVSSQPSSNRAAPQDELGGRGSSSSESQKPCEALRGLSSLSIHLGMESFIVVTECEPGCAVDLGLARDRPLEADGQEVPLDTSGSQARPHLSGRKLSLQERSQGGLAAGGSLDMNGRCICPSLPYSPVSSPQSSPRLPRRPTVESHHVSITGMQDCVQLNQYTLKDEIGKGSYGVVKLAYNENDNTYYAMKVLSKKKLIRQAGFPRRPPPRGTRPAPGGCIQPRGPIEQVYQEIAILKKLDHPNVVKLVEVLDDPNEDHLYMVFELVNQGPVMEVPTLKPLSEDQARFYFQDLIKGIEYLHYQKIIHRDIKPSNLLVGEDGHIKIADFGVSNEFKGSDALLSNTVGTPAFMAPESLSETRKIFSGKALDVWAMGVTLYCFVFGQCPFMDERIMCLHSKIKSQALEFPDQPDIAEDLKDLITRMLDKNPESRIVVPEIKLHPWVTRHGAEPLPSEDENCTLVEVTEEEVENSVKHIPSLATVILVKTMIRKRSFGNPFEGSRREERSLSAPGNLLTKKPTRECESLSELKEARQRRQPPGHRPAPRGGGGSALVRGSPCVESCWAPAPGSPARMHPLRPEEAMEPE

SMILES	ΔTm [°C]
O=c1cc(N2CCOCC2)oc2c1ccc1ccccc12	-0.3
O=C1NC(=O)C(c2cn(CCCn3ccnc3)c3ccccc23)=C1Nc1ccccc1	3.8
N#CCCc1ccc2c(c1)-c1[nH]c3ccc([N+](=O)[O-])cc3c1CC(=O)N2 [ALSTERPAULLONE 2]	2.3
Nc1cccc(-c2cc3c(Oc4cccc(O)c4)ncnc3[nH]2)c1	1.4

molecular target: Serine/threonine-protein kinase 38 (Homo sapiens) (UniProt Q15208)
Sequence (Q15208 2-465 limits assumed): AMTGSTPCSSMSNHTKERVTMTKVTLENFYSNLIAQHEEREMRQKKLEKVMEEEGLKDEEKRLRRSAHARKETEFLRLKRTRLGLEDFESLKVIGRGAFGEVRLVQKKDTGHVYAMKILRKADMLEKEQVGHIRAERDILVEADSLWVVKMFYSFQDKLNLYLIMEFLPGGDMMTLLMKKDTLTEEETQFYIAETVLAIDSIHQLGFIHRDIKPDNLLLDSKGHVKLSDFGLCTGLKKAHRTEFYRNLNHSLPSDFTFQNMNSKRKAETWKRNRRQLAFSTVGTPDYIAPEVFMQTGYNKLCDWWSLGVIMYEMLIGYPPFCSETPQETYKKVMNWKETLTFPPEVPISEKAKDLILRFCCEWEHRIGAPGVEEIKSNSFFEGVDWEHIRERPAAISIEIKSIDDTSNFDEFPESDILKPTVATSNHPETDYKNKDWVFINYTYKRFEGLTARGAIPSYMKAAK

SMILES	ΔTm [°C]
O=c1cc(N2CCOCC2)oc2c1ccc1ccccc12	0.1
O=C1NC(=O)C(c2cn(CCCn3ccnc3)c3ccccc23)=C1Nc1ccccc1	0.7
N#CCCc1ccc2c(c1)-c1[nH]c3ccc([N+](=O)[O-])cc3c1CC(=O)N2 [ALSTERPAULLONE 2]	3.3
Nc1cccc(-c2cc3c(Oc4cccc(O)c4)ncnc3[nH]2)c1	2.2

From ChEMBL document CHEMBL1145498, “A systematic interaction map of validated kinase inhibitors with Ser/Thr kinases” (Proc Natl Acad Sci U S A, 2007)
